Results published in patent US20080113908A1, “Use of CRF receptor agonists for the treatment or Prophylaxis of diseases, for example Neurodegenerative diseases” (SmithKline Beecham plc, priority 2000, published 2008).

Experiments:
[1] = tested on: cerebellar granule neurons; test: Delayed addition of CRF after LY 294002, variation of Assay 1 (FIGS. 6A, 6B); format: cell-based, rat
Protocol: FIGS. 6A and 6B show neuronal survival results, using a variation of Assay 1 in which CRF (10 nM) was added at varying times (shown in hours) following LY 294002 (75 μM) addition. Therefore, granule neurons were cultured with the PI 3-kinase inhibitor LY 294002 (75 μM) in the presence of 10 nM CRF, added together with LY 294002 or at different times (shown in hours) following LY 294002 addition. FIG. 6A is the result from one experiment only. […] It appears from FIG. 6A that the neuroprotective effect is sustained when adding CRF at about 1-4 hrs after LY 294002 addition. From FIG. 6B, it appears that the neuroprotective effect is sustained when adding CRF up to 8 hours after LY 294002 addition.

[2] = molecular target: cerebellar granule neurones; format: cell-based, rat; details: 48 h
Protocol: Cerebellar granule neurones were used in the examples to test neuroprotection by CRF receptor agonists. Cerebellar granule neurones (CGNs) undergo apoptosis during the first few weeks of postnatal life, and in culture require mildly depolarising concentrations of KCl (25 mM) for their survival and maturation (S. R: D'Mello et al., Proc. Natl. Acad. Sci. USA 90, 10989-10993, 1993). The growth signal provided by KCl depends upon activation of the phosphatidylinositol 3-kinase (PI 3-kinase) pathway, and pharmacological inhibition of PI 3-kinase in differentiated granule neurones leads to apoptotic death in the CGNs (T. M. Miller et al., J. Biol. Chem., 272, 9847-9853, 1997). Thus, cultured CGNs represent a suitable model to study mechanisms of programmed cell death, and to identify putative neuroprotective signalling pathways.
Assay 1: Cerebellar granule neurones prepared from postnatal day 8 Sprague Dawley rat pups were used for experiments on death induced by inhibition of PI 3-kinase. General culture methods are described in S. D. Skaper et al. in Methods in Neurosciences, Vol. 2 (Conn P. M., ed), pp. 17-33. Academic Press, San Diego, 1990. At 8-9 days in vitro (DIV), granule neurone cultures were shifted to phenol red-free Dulbecco's modified Eagle's medium lacking serum, and containing 0.05% bovine serum albumin and 25 mM KCl. Death was induced by addition of the PI 3-kinase inhibitor LY 294002 (75 μM). CRF or CRF agonist peptides (urotensin 1, urocortin, sauvagine) were added at different concentrations (from 0.3nM to 300 nM or 1000 nM) together with LY 294002. Forty-eight hours later neuronal survival was quantified by a colorimetric reaction MTT. Absolute MTT values obtained were normalised for small differences in interexperiment plating densities by scaling to the mean of sham-treated sister cultures (defined as 100%).
Results are shown in Table 1 below and in graphical form in FIG. 1, which show the percentage mean neuronal survival (and standard deviation), when in the presence of the relevant CRF receptor agonists and LY 294002, as a function of agonist concentration. […] Urotensin 1, urocortin and sauvagine were also neuroprotective albeit with lower potency (<1 μM).

H-SQEPPISLDLTFHLLREVLEMTKADQLAQQAHNNRKLLDIA-NH2 [CRF]
neuroprotective effect with delayed CRF addition ([1]; CRF 10 nM added 10, 24 and 32 hours after LY 294002 75 μM): Only a small neuroprotective effect | neuroprotective effect with delayed CRF addition ([1]; CRF 10 nM added 46 hours after LY 294002 75 μM): no neuroprotection | time of CRF addition after LY 294002 at which neuroprotective effect is sustained (FIG. 6A) ([1]; CRF 10 nM, LY 294002 75 μM, one experiment): 1 to 4 h | time of CRF addition after LY 294002 at which neuroprotective effect is sustained (FIG. 6B) ([1]; CRF 10 nM, LY 294002 75 μM, two experiments combined): up to 8 hours | EC50 [2]: ~10 nM
